Data as given in patent US9302999B2, “Substituted triazoles as herbicides” (E. I. DU PONT DE NEMOURS AND COMPANY, priority 2012, dated 2016).

What was measured:
Assay type in all cases: in vivo
[1] = tested on: wheat (Triticum aestivum); assay: Test A pre-/postemergence: wheat
Method in brief: (§1)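 Rating scale 0–100 (100 = complete control), visual, ~10 days after application in the greenhouse. Applications: preemergence directed soil spray; postemergence at 1–2 leaves.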

rice (Oryza sativa) = assay: Test C flooded paddy test: rice; details: scale 0 to 100 (0 no effect, 100 complete control)
Excerpt: (§2) Plant species in the flooded paddy test consisted of rice (Oryza sativa), sedge, umbrella (small-flower umbrella sedge, Cyperus difformis), ducksalad (Heteranthera limosa) and barnyardgrass (Echinochloa crus-galli) grown to the 2-leaf stage for testing. At time of treatment, test pots were flooded to 3 cm above the soil surface, treated by application of test compounds directly to the paddy water, and then maintained at that water depth for the duration of the test.
(§3) Treated plants and controls were maintained in a greenhouse for 13 to 15 days, after which time all species were compared to controls and visually evaluated. Plant response ratings, summarized in Table C, are based on a scale of 0 to 100 where 0 is no effect and 100 is complete control. A dash (-) response means no test result.

[2] = tested on: sedge, umbrella (small-flower umbrella sedge, Cyperus difformis); assay: Test C flooded paddy test: sedge, umbrella; details: scale 0 to 100 (0 no effect, 100 complete control)
Excerpt: as §2, §3

[3] = tested on: barnyardgrass (Echinochloa crus-galli); assay: Test A pre-/postemergence: barnyardgrass
Excerpt: (§4) Seeds of barnyardgrass (Echinochloa crus-galli), crabgrass, large (large crabgrass, Digitaria sanguinalis), foxtail, giant (giant foxtail, Setaria faberii), morningglory (Ipomoea spp.), pigweed (Amaranthus retroflexus), velvetleaf (Abutilon theophrasti), wheat (Triticum aestivum), and corn (Zea mays) were planted into a blend of loam soil and sand and treated preemergence with a directed soil spray using test chemicals formulated in a non-phytotoxic solvent mixture which included a surfactant. At the same time these species were also treated with postemergence applications of test chemicals formulated in the same manner.
(§5) Plants ranged in height from two to ten cm and were in the one- to two-leaf stage for the postemergence treatment. Treated plants and untreated controls were maintained in a greenhouse for approximately ten days, after which time all treated plants were compared to untreated controls and visually evaluated for injury. Plant response ratings, summarized in Table A, are based on a 0 to 100 scale where 0 is no effect and 100 is complete control. A dash (-) response means no test result.

[4] = tested on: barnyardgrass (Echinochloa crus-galli); assay: Test C flooded paddy test: barnyardgrass; details: scale 0 to 100 (0 no effect, 100 complete control)
Excerpt: as §2, §3

[5] = tested on: velvetleaf (Abutilon theophrasti); assay: Test A pre-/postemergence: velvetleaf
Method in brief: as §1

[6] = tested on: foxtail, giant (giant foxtail, Setaria faberii); assay: Test A pre-/postemergence: foxtail, giant; details: for Foxtail, Giant plant response rating: Postemergence; for Plant response rating, Foxtail, Giant: Preemergence
Excerpt: as §4, §5

[7] = tested on: ducksalad (Heteranthera limosa); assay: Test C flooded paddy test: ducksalad; details: scale 0 to 100 (0 no effect, 100 complete control)
Excerpt: as §2, §3

[8] = tested on: crabgrass, large (large crabgrass, Digitaria sanguinalis); assay: Test A pre-/postemergence: crabgrass, large
Excerpt: as §4, §5

corn (Zea mays) = assay: Test A pre-/postemergence: corn
Excerpt: as §4, §5

[9] = tested on: morningglory (Ipomoea spp.); assay: Test A pre-/postemergence: morningglory
Excerpt: as §4, §5

[10] = tested on: pigweed (Amaranthus retroflexus); assay: Test A pre-/postemergence: pigweed
Method in brief: as §1

[11] = Postemergence, 125 g ai/ha, 0 to 100 scale, 0 is no effect, 100 is complete control
[12] = Postemergence, 500 g ai/ha, visual rating on 0 to 100 scale (0 no effect, 100 complete control), approximately ten days
[13] = Preemergence, 125 g ai/ha, 0 to 100 scale (0 no effect, 100 complete control)
[14] = Preemergence, 500 g ai/ha, 0 to 100 scale, 0 is no effect, 100 is complete control
[15] = Flood (flooded paddy test), 62 g ai/ha, visual rating after 13 to 15 days
[16] = Flood (flooded paddy test), 125 g ai/ha, visual rating after 13 to 15 days
[17] = Flood (flooded paddy test), 250 g ai/ha, visual rating after 13 to 15 days
[18] = 125 g ai/ha, 0 to 100 scale, 0 is no effect, 100 is complete control
[19] = 500 g ai/ha, visual rating on 0 to 100 scale (0 no effect, 100 complete control), approximately ten days
[20] = 125 g ai/ha, 0 to 100 scale (0 no effect, 100 complete control)
[21] = 500 g ai/ha, 0 to 100 scale, 0 is no effect, 100 is complete control
[22] = Postemergence, 1000 g ai/ha, visual rating on 0 to 100 scale (0 no effect, 100 complete control), approximately ten days
[23] = Preemergence, 1000 g ai/ha, 0 to 100 scale, 0 is no effect, 100 is complete control

SMILES: Cc1nn(-c2ccc(C(F)(F)F)cn2)nc1Cn1cnc(C(F)(F)F)n1 [Compound 8]
- Wheat plant response rating [1, 11]: 0
- Wheat plant response rating [1, 12]: 20
- Plant response rating, Wheat [1, 13]: 0
- Plant response rating, Wheat [1, 14]: 10
- Plant response rating, Rice (rice (Oryza sativa); [15]): 0
- Plant response rating, Rice (rice (Oryza sativa); [16]): 0
- Plant response rating, Rice (rice (Oryza sativa); [17]): 0
- Plant response rating, Rice (rice (Oryza sativa); Flood, 31 g ai/ha): 0
- Plant response rating, Sedge, Umbrella [2, 15]: 0
- Plant response rating, Sedge, Umbrella [2, 16]: 0
- Plant response rating, Sedge, Umbrella [2, 17]: 75
- Plant response rating, Sedge, Umbrella ([2]; Flood, 31 g ai/ha): 0
- Barnyardgrass plant response rating [3, 11]: 10
- Barnyardgrass plant response rating [3, 12]: 80
- Plant response rating, Barnyardgrass [3, 13]: 20
- Plant response rating, Barnyardgrass [3, 14]: 80
- Plant response rating, Barnyardgrass [4, 15]: 0
- Plant response rating, Barnyardgrass [4, 16]: 0
- Plant response rating, Barnyardgrass [4, 17]: 0
- Plant response rating, Barnyardgrass ([4]; Flood, 31 g ai/ha): 0
- Velvetleaf plant response rating [5, 11]: 30
- Velvetleaf plant response rating [5, 12]: 80
- Plant response rating, Velvetleaf [5, 13]: 20
- Plant response rating, Velvetleaf [5, 14]: 60
- Foxtail, Giant plant response rating [6, 18]: 30
- Foxtail, Giant plant response rating [6, 19]: 80
- Plant response rating, Foxtail, Giant [6, 20]: 60
- Plant response rating, Foxtail, Giant [6, 21]: 90
- Plant response rating, Ducksalad [7, 15]: 0
- Plant response rating, Ducksalad [7, 16]: 0
- Plant response rating, Ducksalad [7, 17]: 45
- Plant response rating, Ducksalad ([7]; Flood, 31 g ai/ha): 0
- Crabgrass, Large plant response rating [8, 11]: 40
- Crabgrass, Large plant response rating [8, 12]: 80
- Plant response rating, Crabgrass, Large [8, 13]: 90
- Plant response rating, Crabgrass, Large [8, 14]: 100
- Corn plant response rating (corn (Zea mays); [11]): 20
- Corn plant response rating (corn (Zea mays); [12]): 40
- Plant response rating, Corn (corn (Zea mays); [13]): 0
- Plant response rating, Corn (corn (Zea mays); [14]): 0
- Morningglory plant response rating [9, 11]: 90
- Morningglory plant response rating [9, 12]: 90
- Plant response rating, Morningglory [9, 13]: 30
- Plant response rating, Morningglory [9, 14]: 90
- Pigweed plant response rating [10, 11]: 60
- Pigweed plant response rating [10, 12]: 100
- Plant response rating, Pigweed [10, 13]: 90
- Plant response rating, Pigweed [10, 14]: 100

SMILES: Cc1nn(-c2ccc(C(F)(F)F)cc2)nc1Cn1cc(C(F)(F)F)nc1Cl [Compound 9]
- Wheat plant response rating [1, 11]: 0
- Wheat plant response rating [1, 12]: 20
- Plant response rating, Wheat [1, 13]: 0
- Plant response rating, Wheat [1, 14]: 0
- Plant response rating, Rice (rice (Oryza sativa); [15]): 0
- Plant response rating, Rice (rice (Oryza sativa); [17]): 0
- Plant response rating, Sedge, Umbrella [2, 15]: 40
- Plant response rating, Sedge, Umbrella [2, 17]: 85
- Barnyardgrass plant response rating [3, 11]: 50
- Barnyardgrass plant response rating [3, 12]: 60
- Plant response rating, Barnyardgrass [3, 13]: 30
- Plant response rating, Barnyardgrass [3, 14]: 70
- Plant response rating, Barnyardgrass [4, 15]: 0
- Plant response rating, Barnyardgrass [4, 17]: 30
- Velvetleaf plant response rating [5, 11]: 60
- Velvetleaf plant response rating [5, 12]: 80
- Plant response rating, Velvetleaf [5, 13]: 30
- Plant response rating, Velvetleaf [5, 14]: 50
- Foxtail, Giant plant response rating [6, 18]: 50
- Foxtail, Giant plant response rating [6, 19]: 70
- Plant response rating, Foxtail, Giant [6, 20]: 80
- Plant response rating, Foxtail, Giant [6, 21]: 90
- Plant response rating, Ducksalad [7, 15]: 0
- Plant response rating, Ducksalad [7, 17]: 0
- Crabgrass, Large plant response rating [8, 11]: 60
- Crabgrass, Large plant response rating [8, 12]: 70
- Plant response rating, Crabgrass, Large [8, 13]: 90
- Plant response rating, Crabgrass, Large [8, 14]: 100
- Corn plant response rating (corn (Zea mays); [11]): 20
- Corn plant response rating (corn (Zea mays); [12]): 30
- Plant response rating, Corn (corn (Zea mays); [13]): 0
- Plant response rating, Corn (corn (Zea mays); [14]): 10
- Morningglory plant response rating [9, 11]: 70
- Morningglory plant response rating [9, 12]: 100
- Plant response rating, Morningglory [9, 13]: 50
- Plant response rating, Morningglory [9, 14]: 60
- Pigweed plant response rating [10, 11]: 90
- Pigweed plant response rating [10, 12]: 100
- Plant response rating, Pigweed [10, 13]: 90
- Plant response rating, Pigweed [10, 14]: 100

SMILES: CCc1nn(-c2ccc(F)cc2)nc1Cn1ccc(C(F)(F)C(F)(F)F)n1 [Compound 10]
- Wheat plant response rating [1, 11]: 0
- Wheat plant response rating [1, 12]: 10
- Plant response rating, Wheat [1, 13]: 0
- Plant response rating, Wheat [1, 14]: 0
- Plant response rating, Rice (rice (Oryza sativa); [15]): 0
- Plant response rating, Rice (rice (Oryza sativa); [17]): 0
- Plant response rating, Sedge, Umbrella [2, 15]: 0
- Plant response rating, Sedge, Umbrella [2, 17]: 0
- Barnyardgrass plant response rating [3, 11]: 20
- Barnyardgrass plant response rating [3, 12]: 50
- Plant response rating, Barnyardgrass [3, 13]: 0
- Plant response rating, Barnyardgrass [3, 14]: 10
- Plant response rating, Barnyardgrass [4, 15]: 0
- Plant response rating, Barnyardgrass [4, 17]: 0
- Velvetleaf plant response rating [5, 11]: 40
- Velvetleaf plant response rating [5, 12]: 50
- Plant response rating, Velvetleaf [5, 13]: 0
- Plant response rating, Velvetleaf [5, 14]: 20
- Foxtail, Giant plant response rating [6, 18]: 20
- Foxtail, Giant plant response rating [6, 19]: 50
- Plant response rating, Foxtail, Giant [6, 20]: 20
- Plant response rating, Foxtail, Giant [6, 21]: 80
- Plant response rating, Ducksalad [7, 15]: 0
- Plant response rating, Ducksalad [7, 17]: 0
- Crabgrass, Large plant response rating [8, 11]: 40
- Crabgrass, Large plant response rating [8, 12]: 60
- Plant response rating, Crabgrass, Large [8, 13]: 40
- Plant response rating, Crabgrass, Large [8, 14]: 90
- Corn plant response rating (corn (Zea mays); [11]): 20
- Corn plant response rating (corn (Zea mays); [12]): 20
- Plant response rating, Corn (corn (Zea mays); [13]): 0
- Plant response rating, Corn (corn (Zea mays); [14]): 0
- Morningglory plant response rating [9, 11]: 100
- Morningglory plant response rating [9, 12]: 100
- Plant response rating, Morningglory [9, 13]: 0
- Plant response rating, Morningglory [9, 14]: 10
- Pigweed plant response rating [10, 11]: 70
- Pigweed plant response rating [10, 12]: 100
- Plant response rating, Pigweed [10, 13]: 60
- Plant response rating, Pigweed [10, 14]: 80

SMILES: FC(F)(F)c1ccc(-n2nc(Br)c(Cc3cccc(C(F)(F)F)c3)n2)nc1 [Compound 105]
- Wheat plant response rating [1, 22]: 0
- Wheat plant response rating [1, 23]: 0
- Plant response rating, Rice (rice (Oryza sativa); [16]): 0
- Plant response rating, Rice (rice (Oryza sativa); [17]): 0
- Plant response rating, Rice (rice (Oryza sativa); Flood, 31 g ai/ha): 0
- Plant response rating, Rice (rice (Oryza sativa); Flood, 62 g ai/ha): 0
- Plant response rating, Sedge, Umbrella [2, 16]: 0
- Plant response rating, Sedge, Umbrella [2, 17]: 0
- Plant response rating, Sedge, Umbrella ([2]; Flood, 31 g ai/ha): 0
- Plant response rating, Sedge, Umbrella ([2]; Flood, 62 g ai/ha): 0
- Barnyardgrass plant response rating [3, 22]: 10
- Barnyardgrass plant response rating [3, 23]: 10
- Plant response rating, Barnyardgrass [4, 16]: 0
- Plant response rating, Barnyardgrass [4, 17]: 0
- Plant response rating, Barnyardgrass ([4]; Flood, 31 g ai/ha): 0
- Plant response rating, Barnyardgrass ([4]; Flood, 62 g ai/ha): 0
- Velvetleaf plant response rating [5, 22]: 40
- Velvetleaf plant response rating [5, 23]: 10
- Plant response rating, Ducksalad [7, 16]: 0
- Plant response rating, Ducksalad [7, 17]: 0
- Plant response rating, Ducksalad ([7]; Flood, 31 g ai/ha): 0
- Plant response rating, Ducksalad ([7]; Flood, 62 g ai/ha): 0
- Crabgrass, Large plant response rating [8, 22]: 50
- Crabgrass, Large plant response rating [8, 23]: 50
- Corn plant response rating (corn (Zea mays); [22]): 10
- Corn plant response rating (corn (Zea mays); [23]): 0
- Morningglory plant response rating [9, 22]: 90
- Morningglory plant response rating [9, 23]: 10
- Pigweed plant response rating [10, 22]: 100
- Pigweed plant response rating [10, 23]: 90
